Results on 14 molecules are retold here after US7550485B2, “Substituted N-heterocycle derivatives and methods of their use” (Wyeth, priority 2003, dated 2009).

pEC50: −log10 of the molar value. Counter-ions that a name gives are not always drawn.

The pEC50 is −log10 of the EC50, conventionally taken in molar units. Higher therefore signals a low EC50. Usually inhibition stands for how much of the control response was suppressed.

The experiment has as its target T1, hNET (Homo sapiens, UniProt P23975).
T1 construct: expressed in transfected cells
Put plainly: Norepinephrine (NE) uptake assay in MDCK-Net6 cells stably transfected with human hNET. The experiment is classed as cell-based. As to conditions: [3H]NE uptake; for pEC50: test range 1 to 10,000 nM; for inhibition at 1 µM: MDCK-Net6, 1 μM test compound. As for the experimental part: MDCK-Net6 cells, stably transfected with human hNET (Pacholczyk, T., R. D. Blakely, and S. G. Amara, Nature, 1991, 350(6316): p. 350-4) were cultured in growth medium containing high glucose DMEM (Gibco, Cat. No. 11995), 10% FBS (dialyzed, heat-inactivated, US Bio-Technologies, Lot FBD1129HI) and 500 μg/ml G418 (Gibco, Cat. No. 10131). Cells were plated at 300,000/T75 flask and cells were split twice weekly. The JAR cell line (human placental choriocarcinoma) was purchased from ATCC (Cat. No. HTB-144). The cells were cultured in growth medium containing RPMI 1640 (Gibco, Cat. No. 72400), 10% FBS (Irvine, Cat. No. 3000), 1% sodium pyruvate (Gibco, Cat. No. 1136) and 0.25% glucose. Cells were plated at 250,000 cells/T75 flask and split twice weekly. For all assays, cells were plated in Wallac 96-well sterile plates (PerkinElmer, Cat. No. 3983498).
Norepinephrine (NE) Uptake Assay
On day 1, cells were plated at 3,000 cells/well in growth medium and maintained in a cell incubator (37° C., 5% CO2). On day 2, growth medium was replaced with 200 μl of assay buffer (25 mM HEPES; 120 mM NaCl; 5 mM KCl; 2.5 mM CaCl2; 1.2 mM MgSO4; 2 mg/ml glucose (pH 7.4, 37° C.)) containing 0.2 mg/ml ascorbic acid and 10 μM pargyline. Plates containing cells with […] of assay buffer were equilibrated for 10 minutes at 37° C. prior to addition of compounds. A stock solution of desipramine was prepared in DMSO (10 mM) and delivered to triplicate wells containing cells for a final test concentration of 1 μM. Data from these wells were used to define non-specific NE uptake (minimum NE uptake). Test compounds were prepared in DMSO (10 mM) and diluted in assay buffer according to test range (1 to 10,000 nM). Twenty-five microliters of assay buffer (maximum NE uptake) or test compound were added directly to triplicate wells containing cells in 200 μl of assay buffer. The cells in assay buffer with test compounds were incubated for 20 minutes at 37° C. To initiate the NE uptake, [^3H]NE diluted in assay buffer (120 nM final assay concentration) was delivered in 25 μl aliquots to each well and the plates were incubated for 5 minutes (37° C.). The reaction was terminated by decanting the supernatant from the plate. The plates containing cells were washed twice with 200 μl assay buffer (37° C.) to remove free radioligand. The plates were then inverted, left to dry for 2 minutes, then reinverted and air-dried for an additional 10 minutes. The cells were lysed in 25 μl of 0.25 N NaOH solution (4° C.), placed on a shake table and vigorously shaken for 5 minutes. After cell lysis, 75 μl of scintillation cocktail was added to each well and the plates were sealed with film tape. The plates were returned to the shake table and vigorously shaken for a minimum of 10 minutes to ensure adequate partitioning of organic and aqueous solutions. The plates were counted in a Wallac Microbeta counter (PerkinElmer) to collect the raw cpm data.
For each experiment, a data stream of cpm values collected from the Wallac Microbeta counter was downloaded to a Microsoft Excel statistical application program. Calculations of EC50 values were made using the transformed-both-sides logistic dose response program written by Wyeth Biometrics Department. The statistical program uses mean cpm values from wells representing maximum binding or uptake (assay buffer) and mean cpm values from wells representing minimum binding or uptake ((1 μM desipramine (hNET) or 1 μM paroxetine (hSERT)). Estimation of the EC50 value was completed on a log scale and the line was fit between the maximum and minimum binding or uptake values. All graphic data representation was generated by normalizing each data point to a mean percent based on the maximum and minimum binding or uptake values. The EC50 values reported from multiple experiments were calculated by pooling the raw data from each experiment and analyzing the pooled data as one experiment.

T1 sequence (P23975 whole entry): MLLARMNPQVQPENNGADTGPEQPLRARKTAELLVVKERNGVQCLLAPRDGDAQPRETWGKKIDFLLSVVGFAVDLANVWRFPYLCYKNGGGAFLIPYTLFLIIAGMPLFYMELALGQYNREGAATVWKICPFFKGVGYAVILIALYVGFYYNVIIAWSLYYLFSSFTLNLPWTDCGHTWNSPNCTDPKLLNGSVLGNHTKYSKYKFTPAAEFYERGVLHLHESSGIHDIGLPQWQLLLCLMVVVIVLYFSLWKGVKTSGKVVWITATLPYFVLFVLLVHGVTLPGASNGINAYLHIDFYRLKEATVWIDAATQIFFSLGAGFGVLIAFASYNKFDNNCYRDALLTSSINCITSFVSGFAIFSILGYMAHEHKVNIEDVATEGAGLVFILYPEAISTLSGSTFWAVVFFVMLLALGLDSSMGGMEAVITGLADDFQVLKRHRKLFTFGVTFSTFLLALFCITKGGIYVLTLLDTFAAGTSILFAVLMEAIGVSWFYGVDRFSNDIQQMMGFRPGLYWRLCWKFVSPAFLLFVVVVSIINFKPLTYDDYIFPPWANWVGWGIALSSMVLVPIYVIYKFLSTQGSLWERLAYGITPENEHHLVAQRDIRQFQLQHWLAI

As to `N[C@H]1CCN(C[C@@H](c2cccc(Cl)c2)C2(O)CCCCC2)C1` [Example 388, 1-[(1 R)-2-[(3S)-3-aminopyrrolidin-1-yl]-1-(3-chlorophenyl)ethyl]cyclohexanol dihydrochloride], the pEC50 is 7.07.

For `CN(C)[C@@H]1CCN(CC(c2cccc(Cl)c2)C2(O)CCCCC2)C1` (stereo partly drawn) [Example 202, 1-{1-(3-chlorophenyl)-2-[(3R)-3-(dimethylamino)pyrrolidin-1-yl]ethyl}cyclohexanol dihydrochloride], at 1 µM the inhibition was 74.3%.

On to `CN(C)C1CCN(CC(c2ccc(OCc3ccccc3)c(Cl)c2)C2(O)CCCCC2)CC1` (stereo not shown) [Example 429, 1-{1-[4-(benzyloxy)-3-chlorophenyl]-2-[4-(dimethylamino)piperidin-1-yl]ethyl}cyclohexanol], for which at 1 µM the inhibition was 96% and the pEC50 was 6.74. `CN(C)[C@H]1CCN(CC(c2ccc(OCc3ccccc3)cc2)C2(O)CCCCC2)C1` (stereo partly drawn) [Example 214, 1-{1-[4-(benzyloxy)phenyl]-2-[(3S)-3-(dimethylamino)pyrrolidin-1-yl]ethyl}cyclohexanol dihydrochloride] yielded an inhibition at 1 µM of 65%. Take `COC1CCN(CC(c2ccc(OCc3ccccc3)c(Cl)c2)C2(O)CCCCC2)CC1` (stereo not shown) [Example 339, 1-[1-[4-(benzyloxy)-3-chlorophenyl]-2-(4-methoxypiperidin-1-yl)ethyl]cyclohexanol hydrochloride]: for the setting “MDCK-Net6, 30 μM test compound (stated in cell)”, the inhibition at 30 µM was determined as 94%.

Consider `OC1(C(CN2CCC(N3CCCC3)CC2)c2ccc3ccccc3c2)CCCCC1` (stereo not shown) [Example 31, 1-[1-(2-naphthyl)-2-(4-pyrrolidin-1-ylpiperidin-1-yl)ethyl]cyclohexanol dihydrochloride], for which the inhibition at 1 µM was 70% and the negative-log EC50 (pEC50) is 7.30. For `NC1CCN(CC(c2cccc(Br)c2)C2(O)CCCCC2)CC1` (stereo not shown) [Example 18, 1-[2-(4-aminopiperidin-1-yl)-1-(3-bromophenyl)ethyl]cyclohexanol dihydrochloride] the same measures were 88% and 6.70. `CN(C)C1CCN(CC(c2ccc(OCc3ccc4ccccc4c3)c(Cl)c2)C2(O)CCCCC2)CC1` (stereo not shown) [Example 431, 1-{1-[3-chloro-4-(2-naphthylmethoxyl)phenyl]-2-[4-(dimethylamino)piperidin-1-yl]ethyl}cyclohexanol dihydrochloride] had an inhibition at 1 µM of 79% and a pEC50 of 7.27. `CN(C)C1CCN(CC(c2cccc(Cl)c2)C(C)(C)O)CC1` (stereo not shown) [Example 274, 3-(3-chlorophenyl)-4-[4-(dimethylamino)piperidin-1-yl]-2-methylbutan-2-ol dihydrochloride] showed an inhibition at 1 µM of 50%.

Regarding `N[C@@H]1CCN(CC(c2ccc(OCc3ccccc3)cc2)C2(O)CCCCC2)C1` (stereo partly drawn) [Example 380, 1-{2-[(3R)-3-aminopyrrolidin-1-yl]-1-[4-(benzyloxy)phenyl]ethyl}cyclohexanol dihydrochloride], the inhibition at 1 µM came to 20%. In the case of `CN[C@H]1CCN(CC(c2cccc(Cl)c2)C2(O)CCCCC2)C1` (stereo partly drawn) [Example 198, 1-1-{1-(3-chlorophenyl)-2-[(3S)-3-(methylamino)pyrrolidin-1-yl]ethyl}cyclohexanol dihydrochloride], the inhibition at 1 µM is 77.8%.

As for `CNC1CCN(CC(c2cccc(C(F)(F)F)c2)C2(O)CCCCC2)CC1` (stereo not shown) [Example 30, 1-{2-[4-(methylamino)piperidin-1-yl]-1-[3-(trifluoromethyl)phenyl]ethyl}cyclohexanol dihydrochloride], the inhibition at 1 µM was 79% and the pEC50 is 6.28. In turn, `CNC1CCN(CC(c2cccc(Cl)c2)C2CCCCC2)CC1` (stereo not shown) [Example 232, 1-[2-(3-chlorophenyl)-2-cyclohexylethyl]-N-methylpiperidin-4-amine dihydrochloride] registered an inhibition at 1 µM of 79.1%. `COc1ccc2scc(C(CN3CCC(N)CC3)C3(O)CCCCC3)c2c1` (stereo not shown) [Example 280, 1-[2-(4-aminopiperidin-1-yl)-1-(5-methoxy-1-benzothien-3-yl)ethyl]cyclohexanol dihydrochloride] returned an inhibition at 1 µM of 18%.
